In experiment [1] the target is CDK1/cyclin B (Homo sapiens, UniProt P06493). Briefly: Kinase assay CDK1/cyclin B. Format: biochemical. The note with it: Table 2; read-out: Kinase Inhibition IC50 CDK1 cyclin B. The method, then:
(§1) Kinase assays. […] This was achieved by measurement of incorporation of radioactive phosphate from ATP into appropriate polypeptide substrates. Recombinant protein kinases and kinase complexes were produced or obtained commercially. Assays were performed using 96-well plates and appropriate assay buffers (typically 25 mM β-glycerophosphate, 20 mM MOPS, 5 mM EGTA, 1 mM DTT, 1 mM […], pH 7.4), into which were added 2-4 μg of active enzyme with appropriate substrates. The reactions were initiated by addition of Mg/ATP mix (15 mM MgCl2+100 μM ATP with 30-50 kBq per well of [γ-^32P]-ATP) and mixtures incubated as required at 30° C. Reactions were stopped on ice, followed by filtration through p81 filterplates or GF/C filterplates (Whatman Polyfiltronics, Kent, UK). After washing 3 times with 75 mM aq orthophosphoric acid, plates were dried, scintillant added and incorporated radioactivity measured in a scintillation counter (TopCount, Packard Instruments, Pangbourne, Berks, UK). Compounds for kinase assay were made-up as 10 mM stocks in DMSO and diluted into 10% DMSO inrassay buffer.

Experiment [2] relates to Saos-2. Briefly: 72-h MTT cytotoxicity assay Saos-2. Format: cell-based. The note with it: Homo sapiens, SAOS-2, 72 h, Table 4. The procedure:
(§2) MTT cytotoxicity assay. […] Standard 72-h MTT (thiazolyl blue; 3-[4,5-dimethylthiazol-2-yl]-2,5-diphenyltetrazolium bromide) assays were performed (Haselsberger, K.; Peterson, D. C.; Thomas, D. G.; Darling, J. L. Anti Cancer Drugs 1996, 7, 331-8; Loveland, B. E.; Johns, T. G.; Mackay, I. R.; Vaillant, F.; Wang, Z. X.; Hertzog, P. J. Biochemistry International 1992, 27, 501-10). In short: cells were seeded into 96-well plates according to doubling time and incubated overnight at 37° C. Test compounds were made up in DMSO and a 1/3 dilution series prepared in 100 μL cell media, added to cells (in triplicates) and incubated for 72 ho at 37° C. MTT was made up as a stock of 5 mg/mL in cell media and filter-sterilised. Media was removed from cells followed by a wash with 200 μL PBS.
(§3) MTT solution was then added at 20 μL per well and incubated in the dark at 37° C. for 4 h. MTT solution was removed and cells again washed with 200 μL PBS. MTT dye was solubilised with 200 μL per well of DMSO with agitation.
(Formazan colour is commonly taken as a measure of viable cells.)

Experiment [3] deals with A549. The experiment is described as follows: 72-h MTT cytotoxicity assay A549. Format: cell-based. The conditions noted are these: Homo sapiens, A549, 72 h, Table 4. The method, then:
as §2, §3

For experiment [4], the target named is CDK2/cyclin E (Homo sapiens, UniProt P24941). Briefly: Kinase assay CDK2/cyclin E. Format: biochemical. The note with it: Table 2; read-out: Kinase Inhibition IC50 CDK2 cyclin E. The method, then: as §1
Experiment [5] has as its system HT29. Briefly: 72-h MTT cytotoxicity assay HT29. Format: cell-based. The note with it: Homo sapiens, HT-29, 72 h, Table 4. The procedure: as §2, §3
The target in experiment [6] is CDK4/cyclin D1 (Homo sapiens, UniProt P11802). The experiment is described as follows: Kinase assay CDK4/cyclin D1. The experiment is classed as biochemical. The conditions noted are these: Table 2; read-out: Kinase Inhibition IC50 CDK4 cyclin D1. The method, then:
as §1

Experiment [7] deals with CDK2/cyclin A (Homo sapiens, UniProt P24941). Briefly: Kinase assay CDK2/cyclin A. Format: biochemical. The conditions noted are these: Table 2; read-out: Kinase Inhibition IC50 CDK2 cyclin A. The procedure: as §1
Experiment [8] concerns the target CDK7/cyclin H (Homo sapiens, UniProt P50613). The experiment is described as follows: CDK7 assay. The note with it: Table 2; read-out: Kinase Inhibition IC50 CDK7 cyclin H. The experiment is classed as biochemical. The procedure:
as §1
(§4) CDK 7 and 9 assays. CTD peptide substrate (biotinyl-Ahx-(Tyr-Ser-Pro-Thr-Ser-Pro-Ser)4-NH2; 1-2 mg/mL) and recombinant human CDK7/cyclin H, CDK9/cyclin T1, or CDK9/cyclin K (0.5-2 μg) were incubated for 45 min at 30° C. in the presence of varying amounts of test compound in 20 mM MOPS pH 7.2, 25 mM β-glycerophosphate, 5 mM EGTA, 1 mM DTT, 1 mM sodium vanadate, 15 mM MgCl2, and 100 μM ATP (containing a trace amount of ^32PγATP) in a total volume of 25 μL in a 96-well microtiter plate. The reaction was stopped by placing the plate on ice for 2 min. Avidin (50 μg) was added to each well, and the plate was incubated at room temp for 30 min. The samples were transferred to a 96-well P81 filter plate, and washed (4×200 μL per well) with 75 mM phosphoric acid. Microscint 40 scintillation liquid (50 μL) was added to each well, and the amount of ^32P incorporation for each sample was measured using a Packard Topcount microplate scintillation counter.

Experiment [9] concerns the target CDK9/cyclin T1 (Homo sapiens, UniProt P50750). Briefly: CDK9 assay. Format: biochemical. The note with it: Table 2; read-out: Kinase Inhibition IC50 CDK9 cyclin T1. The method, then:
as §1, §4

Sequence of CDK7/cyclin H (P50613 whole entry): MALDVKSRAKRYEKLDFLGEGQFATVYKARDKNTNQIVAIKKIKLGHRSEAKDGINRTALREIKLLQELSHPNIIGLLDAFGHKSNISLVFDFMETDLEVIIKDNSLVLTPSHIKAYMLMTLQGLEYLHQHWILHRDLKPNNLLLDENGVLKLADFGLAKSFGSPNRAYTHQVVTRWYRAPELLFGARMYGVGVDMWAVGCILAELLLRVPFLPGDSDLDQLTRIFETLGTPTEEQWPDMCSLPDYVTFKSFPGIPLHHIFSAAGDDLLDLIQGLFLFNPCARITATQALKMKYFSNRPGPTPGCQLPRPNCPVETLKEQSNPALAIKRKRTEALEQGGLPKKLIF
Sequence of CDK1/cyclin B (P06493 whole entry): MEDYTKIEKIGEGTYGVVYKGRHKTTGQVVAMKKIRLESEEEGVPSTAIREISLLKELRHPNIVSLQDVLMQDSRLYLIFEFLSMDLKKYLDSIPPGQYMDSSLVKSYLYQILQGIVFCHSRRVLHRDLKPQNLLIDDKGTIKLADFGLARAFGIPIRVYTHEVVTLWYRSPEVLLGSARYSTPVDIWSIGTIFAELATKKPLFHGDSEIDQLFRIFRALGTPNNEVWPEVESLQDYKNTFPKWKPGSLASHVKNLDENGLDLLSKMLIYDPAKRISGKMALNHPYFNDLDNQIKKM
Sequence of CDK1/cyclin B (P14635 whole entry partner): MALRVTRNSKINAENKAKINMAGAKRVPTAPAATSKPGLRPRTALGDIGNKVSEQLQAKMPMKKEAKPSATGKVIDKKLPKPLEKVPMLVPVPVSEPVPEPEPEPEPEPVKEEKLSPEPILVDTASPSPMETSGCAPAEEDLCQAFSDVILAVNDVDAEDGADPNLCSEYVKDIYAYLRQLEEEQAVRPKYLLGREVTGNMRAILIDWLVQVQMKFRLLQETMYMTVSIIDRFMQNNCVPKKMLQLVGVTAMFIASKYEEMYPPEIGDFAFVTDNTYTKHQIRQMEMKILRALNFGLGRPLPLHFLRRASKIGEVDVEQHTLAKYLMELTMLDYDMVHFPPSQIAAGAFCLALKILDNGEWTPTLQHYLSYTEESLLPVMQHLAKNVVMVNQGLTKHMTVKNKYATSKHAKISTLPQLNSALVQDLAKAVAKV
Sequence of CDK9/cyclin T1 (P50750 whole entry): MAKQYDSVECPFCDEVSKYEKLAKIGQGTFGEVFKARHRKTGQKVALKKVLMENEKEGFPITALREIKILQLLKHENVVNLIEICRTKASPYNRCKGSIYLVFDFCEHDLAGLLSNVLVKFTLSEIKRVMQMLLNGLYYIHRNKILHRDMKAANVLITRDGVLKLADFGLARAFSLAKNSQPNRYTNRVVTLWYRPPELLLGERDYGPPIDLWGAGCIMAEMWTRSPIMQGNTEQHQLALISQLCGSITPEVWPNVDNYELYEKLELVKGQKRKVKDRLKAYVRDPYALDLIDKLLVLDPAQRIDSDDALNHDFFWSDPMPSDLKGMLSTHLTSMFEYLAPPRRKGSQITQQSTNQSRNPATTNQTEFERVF
Sequence of CDK9/cyclin T1 (O60563 whole entry partner): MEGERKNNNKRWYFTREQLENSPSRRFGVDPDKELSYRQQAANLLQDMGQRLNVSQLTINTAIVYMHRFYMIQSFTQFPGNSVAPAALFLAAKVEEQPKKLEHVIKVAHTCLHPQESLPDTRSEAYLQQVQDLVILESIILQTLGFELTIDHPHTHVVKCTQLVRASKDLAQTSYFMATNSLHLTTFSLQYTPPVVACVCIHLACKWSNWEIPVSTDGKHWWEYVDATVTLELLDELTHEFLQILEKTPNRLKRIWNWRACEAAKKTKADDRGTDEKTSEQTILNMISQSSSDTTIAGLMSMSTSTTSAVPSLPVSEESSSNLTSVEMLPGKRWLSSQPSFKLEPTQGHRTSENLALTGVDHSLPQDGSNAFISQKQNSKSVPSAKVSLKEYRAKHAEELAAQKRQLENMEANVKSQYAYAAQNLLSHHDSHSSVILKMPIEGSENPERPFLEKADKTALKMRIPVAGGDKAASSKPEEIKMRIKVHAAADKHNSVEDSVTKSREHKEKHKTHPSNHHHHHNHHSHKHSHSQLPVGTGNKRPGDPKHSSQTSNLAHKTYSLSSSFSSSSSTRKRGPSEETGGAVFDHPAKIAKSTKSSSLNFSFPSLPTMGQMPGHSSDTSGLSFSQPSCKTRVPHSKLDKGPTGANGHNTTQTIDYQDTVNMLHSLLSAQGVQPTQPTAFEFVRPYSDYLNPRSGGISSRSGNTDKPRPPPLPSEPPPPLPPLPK
Sequence of CDK4/cyclin D1 (P11802 whole entry): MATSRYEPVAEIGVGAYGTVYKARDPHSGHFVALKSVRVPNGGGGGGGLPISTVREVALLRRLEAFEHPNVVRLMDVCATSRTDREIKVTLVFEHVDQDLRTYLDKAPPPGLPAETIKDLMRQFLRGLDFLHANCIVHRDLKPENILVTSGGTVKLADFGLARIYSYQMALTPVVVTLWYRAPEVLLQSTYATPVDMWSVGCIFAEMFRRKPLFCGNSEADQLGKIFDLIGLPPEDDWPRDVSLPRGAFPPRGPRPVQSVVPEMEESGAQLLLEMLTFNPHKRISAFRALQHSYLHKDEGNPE
Sequence of CDK4/cyclin D1 (P24385 whole entry partner): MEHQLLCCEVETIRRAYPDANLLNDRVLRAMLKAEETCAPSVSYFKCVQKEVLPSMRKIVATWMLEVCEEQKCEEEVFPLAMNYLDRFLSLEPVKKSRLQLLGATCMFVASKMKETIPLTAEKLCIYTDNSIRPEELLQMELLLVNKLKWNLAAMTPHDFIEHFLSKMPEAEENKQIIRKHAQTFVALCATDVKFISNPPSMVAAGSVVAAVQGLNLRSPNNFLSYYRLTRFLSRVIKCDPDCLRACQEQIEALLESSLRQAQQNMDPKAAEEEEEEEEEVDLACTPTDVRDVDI

The term IC50 denotes the concentration that inhibits the measured activity by half. Regarding `Cc1nc(NC(=O)[C@@H](N)[C@H](C)O)sc1-c1ccnc(Nc2cccc([N+](=O)[O-])c2)n1` [Compound 17, (2S,3S)-2-Amino-3-hydroxy-N-{4-methyl-5-[2-(3-nitro-phenylamino)-pyrimidin-4-yl]-thiazol-2-yl}-butyramide], the IC50 came out at 2000 nM in [1]; 1200 nM in experiment [2]; 1100 nM in experiment [3]; 210 nM in [4]; 1200 nM in [5].
In the case of `Cc1nc(NS(C)(=O)=O)sc1-c1ccnc(Nc2ccc(F)cc2)n1` [Compound 31, N-{5-[2-(4-Fluoro-phenylamino)-pyrimidin-4-yl]-4-methyl-thiazol-2-yl}-methanesulfonamide], the IC50 in experiment [2] turned out to be 810 nM; in experiment [3] it was 2000 nM; in experiment [6], 5600 nM; in [4], 300 nM; in [5], 4100 nM.
In the case of `Cc1nc(C)c(-c2ccnc(Nc3ccc(S(C)(=O)=O)cc3)n2)s1` [Compound 85, [4-(2,4-Dimethyl-thiazol-5-yl)-pyrimidin-2-yl]-(4-methanesulfonyl-phenyl)-amine], the IC50 turned out to be 48 nM in [1]; 3800 nM in experiment [6]; 1 nM in [7]; 28 nM in [4]; 11000 nM in [8].
For `Cc1nc(NC(=O)[C@@H](N)CO)sc1-c1ccnc(Nc2cccc([N+](=O)[O-])c2)n1` [Compound 14, (2S)-2-Amino-3-hydroxy-N-{4-methyl-5-[2-(3-nitro-phenylamino)-pyrimidin-4-yl]-thiazol-2-yl}-propionamide], the IC50 in experiment [2] worked out at 1500 nM; in [3], 990 nM; in experiment [6], 2200 nM; in experiment [9] it was 340 nM; in experiment [4], 68 nM; in [5], 730 nM.
Take `Cc1nc(NC(=O)CCCN)sc1-c1ccnc(Nc2cccc([N+](=O)[O-])c2)n1` [Compound 18, 4-Amino-N-{4-methyl-5-[2-(3-nitro-phenylamino)-pyrimidin-4-yl]-thiazol-2-yl}-butyramide]: the IC50 is 1100 nM in [2]; 2500 nM in experiment [3]; 1100 nM in experiment [6]; 530 nM in experiment [9]; 180 nM in [4]; 2400 nM in experiment [5].
`CNc1nc(C)c(-c2ccnc(Nc3cccc(CO)c3)n2)s1` [Compound 91, {3-[4-(4-Methyl-2-methylamino-thiazol-5-yl)-pyrimidin-2-ylamino]-phenyl}-methanol]: the IC50 in experiment [1] came out at 120 nM; in experiment [6], 630 nM; in [7], 100 nM; in [4], 110 nM.
Turning to `Cc1nc(NC(=O)CCl)sc1-c1ccnc(Nc2ccc(F)cc2)n1` [Compound 33, 2-Chloro-N-{5-[2-(4-fluoro-phenylamino)-pyrimidin-4-yl]-4-methyl-thiazol-2-yl}-acetamide], the IC50 turned out to be 300 nM in experiment [2], 330 nM in [3] and 110 nM in experiment [5].
Turning to `Cc1nc(C)c(-c2ccnc(Nc3ccc(N4CCN(CCOCCO)CC4)cc3)n2)s1` [Compound 7, [4-(2,4-Dimethyl-thiazol-5-yl)-pyrimidin-2-yl]-[4-(4′-2″-ethoxylethanolpiperazino)-phenyl]-amine], the IC50 in experiment [1] came to 4200 nM; in experiment [2], 1600 nM; in experiment [3], 3900 nM; in experiment [6], 620 nM; in experiment [7], 1300 nM; in [4], 1800 nM. For the same molecule, the values for the IC50 in [5] and in [8] were 1600 nM and 2200 nM, respectively.
On to `Cc1nc(C)c(-c2ccnc(Nc3ccc(NC(=O)CN4CCOCC4)cc3)n2)s1` [Compound 51, N-{4-[4-(2,4-Dimethyl-thiazol-5-yl)-pyrimidin-2-ylamino]-phenyl}-2-morpholin-4-yl-acetamide], for which the half-inhibitory concentration (IC50) is 11000 nM in [1]; 1100 nM in experiment [2]; 1900 nM in experiment [3]; 400 nM in experiment [6]; 2900 nM in [7]; 1700 nM in experiment [4]. The values for the IC50 in experiment [5] and in experiment [8] were 1400 nM and 9600 nM, respectively.
With `Cc1nc(NC(=O)CN2CCN(C(=O)OC(C)(C)C)CC2)sc1-c1ccnc(Nc2cccc([N+](=O)[O-])c2)n1` [Compound 28, 4-({4-Methyl-5-[2-(3-nitro-phenylamino)-pyrimidin-4-yl]-thiazol-2-ylcarbamoyl}-methyl)-piperazine-1-carboxylic acid tert-butyl ester], the IC50 in experiment [1] came to 36000 nM; in experiment [2] it was 15000 nM; in experiment [3], 9900 nM; in [6] it was 29000 nM; in [7], 12000 nM; in experiment [4], 2600 nM. The same molecule came in with an IC50 in experiment [5] of 6740 nM.
`CC(=O)N(C)c1ccc(Nc2nccc(-c3sc(C)nc3C)n2)cc1` [Compound 48, N-{4-[4-(2,4-Dimethyl-thiazol-5-yl)-pyrimidin-2-ylamino]-phenyl}-N-methyl-acetamide]: the IC50 was determined as 12000 nM in experiment [1]; 3800 nM in experiment [2]; 3000 nM in experiment [3]; 2600 nM in [6]; 1700 nM in experiment [7]; 2100 nM in experiment [4]. Also, the IC50 in experiment [5] was 2600 nM; in experiment [8], 3500 nM.
Take `Cc1nc(C)c(-c2ccnc(Nc3ccc(N4CCN(S(C)(=O)=O)CC4)cc3)n2)s1` [Compound 10, [4-(2,4-Dimethyl-thiazol-5-yl)-pyrimidin-2-yl]-[4-(4-methanesulfonyl-piperazin-1-yl)-phenyl]-amine]: the IC50 in experiment [1] was 51000 nM; in experiment [3], 11000 nM; in [6], 11000 nM; in experiment [5] it was 6400 nM.
In the case of `Cc1nc(NC(=O)CCl)sc1-c1ccnc(Nc2cccc([N+](=O)[O-])c2)n1` [Compound 24, 2-Chloro-N-{4-methyl-5-[2-(3-nitro-phenylamino)-pyrimidin-4-yl]-thiazol-2-yl}-acetamide], the IC50 was determined as 170 nM in [2]; 140 nM in experiment [3]; 440 nM in experiment [6]; 5.8 nM in experiment [9]; 1100 nM in [4]; 140 nM in experiment [5].
`Cc1nc(C)c(-c2ccnc(Nc3ccc(NC(=O)Cn4cncn4)cc3)n2)s1` [Compound 52, N-{4-[4-(2,4-Dimethyl-thiazol-5-yl)-pyrimidin-2-ylamino]-phenyl}-2-[1,2,4]triazol-1-yl-acetamide]: the IC50 in experiment [1] came out at 2500 nM; in experiment [2], 1100 nM; in [3], 1600 nM; in experiment [6], 180 nM; in experiment [7], 1300 nM; in experiment [4], 440 nM. The IC50 in experiment [5] was determined as 1600 nM; in experiment [8], 2000 nM.
For the molecule `CNc1nc(C)c(-c2ccnc(Nc3ccc(N4CCNCC4)cc3)n2)s1` [Compound 62, [4-(4-Methyl-2-methylamino-thiazol-5-yl)-pyrimidin-2-yl]-(4-piperazin-l-yl-phenyl)-amine], the IC50 was found to be 980 nM in [1]; 260 nM in experiment [2]; 190 nM in experiment [3]; 7 nM in experiment [6]; 180 nM in experiment [5].

These data come from patent US7432260B2, “Pyrimidine compounds” (Cyclacel Limted, priority 2002, dated 2008).
